These results are taken from patent US12492174B2, “Morpholine-3-carboxamide derivatives as prostaglandin E2 receptor 4 (EP4) agonists for the treatment of gastrointestinal and pulmonary diseases” (NXERA PHARMA UK LIMITED, priority 2022, dated 2025).

What is called Emax is the greatest response seen or fitted, relative to the assay's reference. As a reminder, the Papp A→B is how fast a substance crosses the layer from the apical side. A higher Papp A→B goes with ready permeation.

The target in one data set is T1, human EP4 (Homo sapiens, UniProt P35408).
T1 construct: expressed in transfected cells; host or cells: HEK293 cells transduced with EP4 BacMam virus
T1 sequence (P35408 whole entry): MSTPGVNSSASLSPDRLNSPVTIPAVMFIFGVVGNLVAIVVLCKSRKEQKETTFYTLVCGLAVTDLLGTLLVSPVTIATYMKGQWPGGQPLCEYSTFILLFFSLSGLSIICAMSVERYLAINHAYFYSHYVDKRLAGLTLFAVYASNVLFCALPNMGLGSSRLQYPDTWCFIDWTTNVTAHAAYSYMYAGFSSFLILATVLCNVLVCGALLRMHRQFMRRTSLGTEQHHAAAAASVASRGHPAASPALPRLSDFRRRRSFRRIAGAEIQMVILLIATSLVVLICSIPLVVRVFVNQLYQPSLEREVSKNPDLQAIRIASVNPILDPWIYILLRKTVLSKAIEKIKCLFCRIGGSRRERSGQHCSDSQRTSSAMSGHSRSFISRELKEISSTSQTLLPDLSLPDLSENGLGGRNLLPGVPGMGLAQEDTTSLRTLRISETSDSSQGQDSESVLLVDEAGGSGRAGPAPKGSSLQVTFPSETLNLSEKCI
In words: cAMP Gs functional assay (HTRF cAMP dynamic-2). Format: cell-based. Particulars: for Emax: HEK293, HEK293 cells transfected with EP4 Bacmam virus, positive control 10 uM PGE2; for EC50: HEK293 cells transfected with EP4 Bacmam virus, 30 mins at 37° C., −Log of the molarity (M), read-out: cAMP human EP4 pEC50 (converted). As to the method:
Cloning, Baculovirus generation, large scale infection of HEK293 cells and membrane preparation: Human prostaglandin E2 receptor 4 (EP4) was cloned into pBacMam expression vector (GeneScript, UK). Transposition of EP4 DNA was performed using Invitrogen's Bac-to-Bac Baculovirus Expression Systems. P0 baculovirus was generated by transfecting SF9 Cells with bacmid DNA using Cellfectin II transfection reagent (ThermoFisher Scientific, UK). Following P0 generation P1 virus was then generated ready for large scale infection and membrane preparation. HEK293 cells were grown in DMEM (ThermoFisher Scientific, UK), supplemented with 10% heat inactivated fetal bovine serum (FBS). Cells were infected at a seeding density of 3.5 million cells/mL in 500 cm^3 flasks at 5% v/v EP4 Bacman. Expression was carried out over a 36 hr period at 37° C. with 5% CO2. The cells were removed using PBS and a cell scrapper. The cell culture was centrifuged at 2500 RPM for 10 mins at 4° C. The supernatant was then poured off and the pellet stored at −80° C. The pellet was defrosted and re-suspended in 15 mL of homogenising buffer (20 mM HEPES, 10 mM EDTA, pH 7.4). Then homogenised in mechanical homogeniser (VMR) for 10 seconds. The membrane was centrifuged in centrifuge tubes at 40,000 g for 15 mins at 4° C. The supernatant was poured away and re-suspended in 15 mL of homogenising buffer. Homogenised for 20 seconds. The membrane was centrifuged at 40,000 g for 45 mins at 4° C. The membrane was re-suspended in 3 mL of storage buffer (20 mM HEPES, 0.1 mM EDTA, pH 7.4) mixing well. The resulting membranes were then stored at −80° C.
cAMP Gs Functional Assay: cAMP production following EP4 receptor activation was determined using the Homogeneous Time-Resolved Fluorescence (HTRF) cAMP dynamic-2 assay (Cisbio, France). HEK293 cells were transfected using a 0.5% EP4 Bacmam virus for 36 hours, before dissociating the cells, and freezing at −150° C.
On the day of testing, increasing concentration of test compounds, alongside positive controls (10 uM PGE2 (Tocris, Abingdon, UK)) and negative control (DMSO (Sigma-Aldrich, UK) were added to a ProxiPlate-384 Plus, White 384-shallow well Mircoplate, (PerkinElmer, USA) using the ECHO dispense.
Cells were defrosted in a water bath and resuspended in DMEM supplemented with 10% FBS before centrifuging at 1200 RPM for 5 mins to form a pellet. The pellet was resuspended in assay buffer (DMEM+0.5 mM IBMX (Tocris, Abingdon, UK)) to 0.5×10^6 cells/mL. Cell suspension, for a final assay concentration of 5000 cell/well was added using the multidrop to the pre-dispensed assay plate. The plate was then incubated at 37° C. for 30 mins, with 5% CO2. The cAMP production was determined as manufacturer's instructions, before plates were read on a PheraStar fluorescence plate reader (BMG LabTech, Germany).
The pEC50 values (−Log of the molarity (M) in mol/liter) were calculated from the mid-point of the curve using dotmatics as shown in Table 3.
A general note: In TR-FRET formats the signal depends on donor and acceptor labels being close together.

Data set [1] is described as follows: Unidirectional Caco-2 cell permeability assay. The class given is in vitro ADME. As to conditions: human, n=2, apical pH 6.5, basolateral pH 7.4, 1 hour, 37° C. As to the method:
Caco-2 cells (ECACC) were seeded onto 24-well Transwell plates at 2×10^5 cells per well and used in confluent monolayers after a 21 day culture at 37° C. under 5% CO2. Test compounds were incubated at 10 μM, 0.2% DMSO final, n=2 in assay buffer (Hanks balanced salt solution supplemented with 25 mM HEPES, adjusted to pH 6.5). Hanks balanced salt solution supplemented with 25 mM HEPES, adjusted to pH 7.4 (0.2% DMSO final) was used for the basolateral chamber (as receiver).
Incubations were performed at 37° C., with samples removed from both donor and acceptor chambers at T=0 and 1 hour and compound analysed by mass spectrometry (LC-MS/MS) including an analytical internal standard (0.5 μM carbamazepine).
Apparent permeability (Papp) values are shown in Table 4 and were determined from the relationship:
Where V is the volume of each Transwell compartment (apical 125 μL, basolateral 600 μL), and concentrations are the relative MS responses for compound (normalized to internal standard) in the donor chamber before incubation and acceptor chamber at the end of the incubation Area=area of cells exposed for drug transfer (0.33 cm^2).
Lucifer Yellow (LY) was added to the apical buffer in all wells to assess viability of the cell layer. As LY cannot freely permeate lipophilic barriers, a high degree of LY transport indicates poor integrity of the cell layer and wells with a LY Papp>10×10^−6 cm/s were rejected.
Compound recovery from the wells was determined from MS responses (normalized to internal standard) in donor and acceptor chambers at the end of incubation compared to response in the donor chamber pre-incubation.

On to `C[C@H](NC(=O)[C@H]1COCCN1Cc1ccc(O)c(-c2ccc(S(N)(=O)=O)cc2)c1)c1ccc(C(=O)O)cc1` [Example 24, 4-[(1S)-1-[[(3R)-4-[[4-hydroxy-3-(4-sulfamoylphenyl)phenyl]methyl]morpholine-3-carbonyl]amino]ethyl]benzoic acid], for which, on human EP4, the Emax is 96% and the EC50 was 2.51e-08 M. This compound showed a Papp A→B at 1 h, 10 μM in data set [1] of 0.26 ×10⁻⁶ cm/s.
On the same counts, the results for `Cc1cc(S(N)(=O)=O)ccc1-c1cccc(CN2CCOC[C@@H]2C(=O)N[C@@H](C)c2ccc(C(=O)O)c(O)c2)c1` [Example 25, 2-hydroxy-4-((S)-1-((R)-4-((2′-methyl-4′-sulfamoyl-[1,1′-biphenyl]-3-yl)methyl)morpholine-3-carboxamido)ethyl)benzoic acid] are 97%, 6.31e-09 M and < 0.1 ×10⁻⁶ cm/s.
`Cc1cc(C(N)=O)ccc1-c1cncc(CN2CCOC[C@@H]2C(=O)N[C@@H](C)c2ccc(C(=O)O)c(O)c2)c1` [Example 28, 4-((S)-1-((R)-4-((5-(4-carbamoyl-2-methylphenyl)pyridin-3-yl)methyl)morpholine-3-carboxamido)ethyl)-2-hydroxy benzoic acid]: the Emax at human EP4 stood at 100%. The compound further returned a Papp A→B at 1 h, 10 μM in data set [1] of 0.23 ×10⁻⁶ cm/s.
`Cc1cc(C(N)=O)ccc1-c1cccc(CN2CCOC[C@@H]2C(=O)NC2(c3ccc(C(=O)O)cc3)CC2)c1` [Example 31, (R)-4-(1-(4-((4′-carbamoyl-2′-methyl-[1,1′-biphenyl]-3-yl)methyl)morpholine-3-carboxamido)cyclopropyl)benzoic acid]: on human EP4, the Emax is 98% and the EC50 was 1.26e-10 M. The compound also yielded a Papp A→B at 1 h, 10 μM in data set [1] of 0.66 ×10⁻⁶ cm/s.
On the same counts, the results for `NC(=O)c1ccc(-c2cccc(CN3CCOC[C@@H]3C(=O)NC3(c4ccc(C(=O)O)cc4)CC3)c2)c(O)c1` [Example 32, (R)-4-(1-(4-((4′-carbamoyl-2′-hydroxy-[1,1′-biphenyl]-3-yl)methyl)morpholine-3-carboxamido)cyclopropyl)benzoic acid] are 91%, 6.31e-10 M and 0.15 ×10⁻⁶ cm/s.
`Cc1cc(C(N)=O)ccc1-c1cc(O)cc(CN2CCOC[C@@H]2C(=O)NC2(c3ccc(C(=O)O)cc3)CC2)c1` [Example 33, (R)-4-(1-(4-((4′-carbamoyl-5-hydroxy-2′-methyl-[1,1′-biphenyl]-3-yl)methyl)morpholine-3-carboxamido)cyclopropyl)benzoic acid]: at human EP4, the Emax is 93% and the EC50 is 3.16e-12 M. For the same compound, the Papp A→B at 1 h, 10 μM in data set [1] stood at 0.14 ×10⁻⁶ cm/s.
On the same counts, the results for `NC(=O)c1ccc(-c2cc(CN3CCOC[C@@H]3C(=O)NC3(c4ccc(C(=O)O)cc4)CC3)ccc2O)cc1` [Example 34, (R)-4-(1-(4-((4′-carbamoyl-6-hydroxy-[1,1′-biphenyl]-3-yl)methyl)morpholine-3-carboxamido)cyclopropyl)benzoic acid] are 97%, 3.98e-10 M and 0.39 ×10⁻⁶ cm/s.
The corresponding values for `Cc1cc(C(N)=O)ccc1-c1cc(O)cc(CN2CCOC[C@@H]2C(=O)N[C@@H](C)c2ccc(-c3nnn[nH]3)cc2)c1` [Example 36, (R)—N-((S)-1-(4-(1H-tetrazol-5-yl)phenyl)ethyl)-4-((4′-carbamoyl-5-hydroxy-2′-methyl-[1,1′-biphenyl]-3-yl)methyl)morpholine-3-carboxamide] are 96%, 2.51e-10 M and 0.11 ×10⁻⁶ cm/s.
Regarding `Cc1cc(C(N)=O)ccc1-c1cc(O)cc(CN2CCOC[C@H]2C(=O)N[C@@H](C)c2ccc(C(=O)O)cc2)c1` [Example 37, 4-((S)-1-((S)-4-((4′-carbamoyl-5-hydroxy-2′-methyl-[1,1′-biphenyl]-3-yl)methyl)morpholine-3-carboxamido)ethyl)benzoic acid], the EC50 at human EP4 was > 1e-07 M. In addition, the Papp A→B at 1 h, 10 μM in data set [1] is < 0.1 ×10⁻⁶ cm/s.
Take `Cc1cc(C(N)=O)ccc1-c1cc(O)cc(CN2CCOC[C@H]2C(=O)N[C@H](C)c2ccc(C(=O)O)cc2)c1` [Example 38, 4-((R)-1-((S)-4-((4′-carbamoyl-5-hydroxy-2′-methyl-[1,1′-biphenyl]-3-yl)methyl)morpholine-3-carboxamido)ethyl)benzoic acid]: on human EP4, the Emax is 94% and the EC50 is 2e-08 M. Also, in data set [1], the Papp A→B at 1 h, 10 μM was < 0.1 ×10⁻⁶ cm/s.
The corresponding values for `Cc1cc(C(N)=O)ccc1-c1cc(O)cc(CN2CCOC[C@@H]2C(=O)N[C@H](C)c2ccc(C(=O)O)cc2)c1` [Example 39, 4-((R)-1-((R)-4-((4′-carbamoyl-5-hydroxy-2′-methyl-[1,1′-biphenyl]-3-yl)methyl)morpholine-3-carboxamido)ethyl)benzoic acid] are 99%, 7.94e-11 M and 0.35 ×10⁻⁶ cm/s.
